# From patent US20170190671A1, “BIS(ARYL)CATECHOL DERIVATIVES AS HERBICIDES” (E I DU PONT DE NEMOURS AND COMPANY, priority 2014, published 2017)
# Experiments:
# Type in all cases: in vivo
# [1] = system: ragweed (common ragweed, Ambrosia elatior); assay: Test A postemergence; settings: Ambrosia artemisiifolia, post-emergence, 240 h, 0 to 100 scale, read-out: Plant response rating, Ragweed
# Summary of the method: (§1)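 Visual injury scored 0–100 (100 = complete control) against untreated controls about 10 days after treatment in a greenhouse. Test chemicals, formulated with surfactant in non-phytotoxic solvent, were sprayed on soil preemergence or on 2-10 cm, one- to two-leaf plants postemergence.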
# [2] = system: galium (catchweed bedstraw, Galium aparine); assay: Test A postemergence; settings: Galium, post-emergence, 240 h, 0 to 100 scale, read-out: Plant response rating, Galium
# Summary of the method: as §1
# [3] = system: giant foxtail (Setaria faberii); assay: Test A postemergence; settings: Setaria faberi, post-emergence, 240 h, 0 to 100 scale, read-out: Plant response rating, Foxtail, Giant
# Summary of the method: as §1
# [4] = system: blackgrass (Alopecurus myosuroides); assay: Test A postemergence; settings: Alopecurus myosuroides, post-emergence, 240 h, 0 to 100 scale, read-out: Plant response rating, Blackgrass
# Summary of the method: as §1
# [5] = system: kochia (Kochia scoparia); assay: Test A postemergence; settings: Bassia scoparia, post-emergence, 240 h, 0 to 100 scale, read-out: Plant response rating, Kochia
# Summary of the method: as §1
# [6] = system: pigweed (Amaranthus retroflexus); assay: Test A postemergence; settings: Amaranthus retroflexus, post-emergence, 240 h, 0 to 100 scale, read-out: Plant response rating, Pigweed
# Summary of the method: as §1
# [7] = system: Italian ryegrass (Lolium multiflorum); assay: Test A postemergence; settings: Lolium multiflorum, post-emergence, 240 h, 0 to 100 scale, read-out: Plant response rating, Ryegrass, Italian
# Summary of the method: as §1
# [8] = system: wheat (Triticum aestivum); assay: Test A postemergence; settings: Triticum aestivum, post-emergence, 240 h, 0 to 100 scale, read-out: Plant response rating, Wheat
# Summary of the method: as §1
# [9] = system: barnyardgrass (Echinochloa crus-galli); assay: Test A postemergence; settings: Echinochloa crus-galli, post-emergence, 240 h, 0 to 100 scale, read-out: Plant response rating, Barnyardgrass
# Summary of the method: as §1
# [10] = system: corn (Zea mays); assay: Test A postemergence; settings: Zea mays, post-emergence, 240 h, 0 to 100 scale
# Summary of the method: as §1
# [11] = system: ragweed (common ragweed, Ambrosia elatior); assay: Test A preemergence; settings: Ambrosia artemisiifolia, pre-emergence, 240 h
# Summary of the method: as §1
# [12] = system: giant foxtail (Setaria faberii); assay: Test A preemergence; settings: Setaria faberi, pre-emergence, 240 h
# Summary of the method: as §1
# [13] = system: kochia (Kochia scoparia); assay: Test A preemergence; settings: Bassia scoparia, pre-emergence, 240 h
# Summary of the method: as §1
# [14] = system: pigweed (Amaranthus retroflexus); assay: Test A preemergence; settings: Amaranthus retroflexus, pre-emergence, 240 h
# Summary of the method: as §1
# [15] = system: Italian ryegrass (Lolium multiflorum); assay: Test A preemergence; settings: Lolium multiflorum, pre-emergence, 240 h
# Summary of the method: as §1
# [16] = system: barnyardgrass (Echinochloa crus-galli); assay: Test A preemergence; settings: Echinochloa crus-galli, pre-emergence, 240 h
# Summary of the method: as §1
# [17] = system: ducksalad (Heteranthera limosa); assay: Test B flooded paddy; settings: Heteranthera limosa, 336 h; 250 g ai/ha, Flood, 13 to 15 days, scale 0 (no effect) to 100 (complete control); read-out: Plant response rating, Ducksalad
# Summary of the method: (§2)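 Ratings were visual and made relative to untreated controls after 13 to 15 greenhouse days.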
# [18] = system: rice (Oryza sativa); assay: Test B flooded paddy; settings: Oryza sativa, 336 h; 250 g ai/ha, Flood, 13 to 15 days, scale 0 (no effect) to 100 (complete control); read-out: Plant response rating, Rice
# Summary of the method: as §2
# [19] = system: sedge, umbrella (small-flower umbrella sedge, Cyperus difformis); assay: Test B flooded paddy; settings: Cyperus difformis, 336 h; 250 g ai/ha, Flood, 13 to 15 days, scale 0 (no effect) to 100 (complete control); read-out: Plant response rating, Sedge, Umbrella
# Summary of the method: as §2
# [20] = system: barnyardgrass (Echinochloa crus-galli); assay: Test B flooded paddy; settings: Echinochloa crus-galli, 336 h; 250 g ai/ha, Flood, 13 to 15 days, scale 0 (no effect) to 100 (complete control); read-out: Plant response rating, Barnyardgrass
# Summary of the method: as §2
smiles,measurement,setting,value
N#Cc1cccc(Oc2ncc(Br)cn2)c1Oc1ccc(Cl)cn1 [Compound 11],pest or weed control at 31 g/ha,[1]; 31 g ai/ha,0%
same,pest or weed control at 125 g/ha,[1]; 125 g ai/ha,10%
same,pest or weed control at 500 g/ha,[1]; 500 g ai/ha,10%
same,pest or weed control at 31 g/ha,[2]; 31 g ai/ha,70%
same,pest or weed control at 125 g/ha,[2]; 125 g ai/ha,100%
same,pest or weed control at 500 g/ha,[2]; 500 g ai/ha,100%
same,pest or weed control at 31 g/ha,[3]; 31 g ai/ha,0%
same,pest or weed control at 125 g/ha,[3]; 125 g ai/ha,95%
same,pest or weed control at 500 g/ha,[3]; 500 g ai/ha,100%
same,pest or weed control at 31 g/ha,[4]; 31 g ai/ha,10%
same,pest or weed control at 125 g/ha,[4]; 125 g ai/ha,90%
same,pest or weed control at 500 g/ha,[4]; 500 g ai/ha,100%
same,pest or weed control at 31 g/ha,[5]; 31 g ai/ha,40%
same,pest or weed control at 125 g/ha,[5]; 125 g ai/ha,95%
same,pest or weed control at 500 g/ha,[5]; 500 g ai/ha,100%
same,pest or weed control at 31 g/ha,[6]; 31 g ai/ha,100%
same,pest or weed control at 125 g/ha,[6]; 125 g ai/ha,100%
same,pest or weed control at 500 g/ha,[6]; 500 g ai/ha,100%
same,pest or weed control at 31 g/ha,[7]; 31 g ai/ha,0%
same,pest or weed control at 125 g/ha,[7]; 125 g ai/ha,25%
same,pest or weed control at 500 g/ha,[7]; 500 g ai/ha,90%
same,plant injury at 31 g/ha,[8]; 31 g ai/ha,20%
same,plant injury at 125 g/ha,[8]; 125 g ai/ha,50%
same,plant injury at 500 g/ha,[8]; 500 g ai/ha,90%
same,pest or weed control at 31 g/ha,[9]; 31 g ai/ha,0%
same,pest or weed control at 125 g/ha,[9]; 125 g ai/ha,80%
same,pest or weed control at 500 g/ha,[9]; 500 g ai/ha,100%
same,"Corn plant response rating (crop injury, 0 = no effect, 100 = complete kill) at 31 g/ha",[10]; 31 g ai/ha,10%
same,"Corn plant response rating (crop injury, 0 = no effect, 100 = complete kill) at 125 g/ha",[10]; 125 g ai/ha,30%
same,"Corn plant response rating (crop injury, 0 = no effect, 100 = complete kill) at 500 g/ha",[10]; 500 g ai/ha,100%
same,pest or weed control at 31 g/ha,"[11]; 31 g ai/ha, 0 to 100 scale (0 no effect, 100 complete control), read-out: Ragweed plant response rating",0%
same,pest or weed control at 125 g/ha,"[11]; 125 g ai/ha, 0 to 100 scale, read-out: Plant response rating, Ragweed",0%
same,pest or weed control at 500 g/ha,"[11]; 500 g ai/ha, 0 to 100 scale, read-out: Plant response rating, Ragweed",10%
same,pest or weed control at 31 g/ha,"[12]; 31 g ai/ha, 0 to 100 scale (0 no effect, 100 complete control), read-out: Foxtail, Giant plant response rating",20%
same,pest or weed control at 125 g/ha,"[12]; 125 g ai/ha, 0 to 100 scale, read-out: Plant response rating, Foxtail, Giant",100%
same,pest or weed control at 500 g/ha,"[12]; 500 g ai/ha, 0 to 100 scale, read-out: Plant response rating, Foxtail, Giant",100%
same,pest or weed control at 31 g/ha,"[13]; 31 g ai/ha, 0 to 100 scale (0 no effect, 100 complete control), read-out: Kochia plant response rating",10%
same,pest or weed control at 125 g/ha,"[13]; 125 g ai/ha, 0 to 100 scale, read-out: Plant response rating, Kochia",75%
same,pest or weed control at 500 g/ha,"[13]; 500 g ai/ha, 0 to 100 scale, read-out: Plant response rating, Kochia",100%
same,pest or weed control at 31 g/ha,"[14]; 31 g ai/ha, 0 to 100 scale (0 no effect, 100 complete control), read-out: Pigweed plant response rating",90%
same,pest or weed control at 125 g/ha,"[14]; 125 g ai/ha, 0 to 100 scale, read-out: Plant response rating, Pigweed",100%
same,pest or weed control at 500 g/ha,"[14]; 500 g ai/ha, 0 to 100 scale, read-out: Plant response rating, Pigweed",100%
same,pest or weed control at 31 g/ha,"[15]; 31 g ai/ha, 0 to 100 scale (0 no effect, 100 complete control), read-out: Ryegrass, Italian plant response rating",0%
same,pest or weed control at 125 g/ha,"[15]; 125 g ai/ha, 0 to 100 scale, read-out: Plant response rating, Ryegrass, Italian",10%
same,pest or weed control at 500 g/ha,"[15]; 500 g ai/ha, 0 to 100 scale, read-out: Plant response rating, Ryegrass, Italian",90%
same,pest or weed control at 31 g/ha,"[16]; 31 g ai/ha, 0 to 100 scale (0 no effect, 100 complete control), read-out: Barnyardgrass plant response rating",0%
same,pest or weed control at 125 g/ha,"[16]; 125 g ai/ha, 0 to 100 scale, read-out: Plant response rating, Barnyardgrass",80%
same,pest or weed control at 500 g/ha,"[16]; 500 g ai/ha, 0 to 100 scale, read-out: Plant response rating, Barnyardgrass",100%
same,pest or weed control at 250 g/ha,[17],100%
same,plant injury at 250 g/ha,[18],0%
same,pest or weed control at 250 g/ha,[19],85%
same,pest or weed control at 250 g/ha,[20],0%
